Source: patent EP0727211A1, “Use of src SH2 specific compounds to treat a bone resorption disease” (SMITHKLINE BEECHAM CORPORATION, priority 1995, dated 1996)

Molecular target: T1, human Grb2 SH2 domain (Homo sapiens, UniProt P62993)
T1 construct: SH2 domain of human Grb2 (amino acids 58-159); made in house; host or cells: E. coli (pGEX-2T)
Test: SH2 domain / pY peptide binding assay (ELISA-based, 96 well plate), Grb2 SH2
Conditions: for Ki: Ki calculated from IC50 by the expanded equation, Table II; for IC50: cloned human SH2 domain fusion protein, 0.1 uM biotinylated pY peptide, Table I
Procedure: The inhibitory activity of compounds at the different human SH2 domains was determined in vitro using SH2 domains expressed as fusion proteins in E. coli. The SH2 domains used herein were the human forms of the src SH2 domain, Grb2 SH2 domain, lck SH2 domain, fyn SH2 domain, SH-PTP2 SH2 domain, p85 SH2 domain and hcp SH2 domain.
Fusion proteins having the structure GST-X-SH2 were prepared as described in the GST gene fusion kit system available from Pharmacia (New Jersey). GST is the tagging sequence glutathione s-transferase epitope (SEQ ID NO: 8) for fyn, Grb2 and SH-PTP2 and is the tagging sequence glutathione s-transferase epitope (SEQ ID NO: 9) for p85. SH2 refers to the SH2 domains of fyn, Grb2, p85 and SH-PTP2 which were expressed and purified using glutathione Sepharose 4B (Pharmacia) according to "Current Protocols in Molecular Biology", ed. FM Ausubel et al., pub. John Wiley and Sons, Inc., (1995), p 16.7.1. X is an appropriate linker, preferably of 6 to 21 base pairs, used to keep the SH2 construct in frame and complement cloning. As such, the sequence of X is not critical. One skilled in the art can readily construct the appropriate linker. The DNA sequence encoding each GST-X-SH2 fusion protein was designed such that the indicated restriction sites (BamH1 and EcoRI) flank the SH2 region. The vector used in the instant experiments was the E. coli expression vector pGEX-2T (Pharmacia) for fyn, Grb2 and SH-PTP2, and pGEX-3X (Pharmacia) for p85. Each of these vectors result in SH2 constructs having additional C-terminal amino acids as described below.
Human Grb2 SH2 domain: The sequence encoding the SH2 domain of human Grb2 (amino acids 58-159) (Lowenstein, E. et al., Cell 70, 431-442 (1992)) was cloned into the BamHI and EcoRI sites of the expression vector pGEX-2T. The SH2 domain including the additional C-terminal amino acids isoleucine-histidine-arginine-aspartate (SEQ ID NO: 25) was cloned by PCR techniques known to those skilled in the art to yield the expressed fusion protein GST-X-Grb2.
The binding assays for the SH2 domains and pY peptides were performed in an ELISA-based 96 well plate assay. In Millipore 96 well filter plates, hydrophilic Durapore® (pore size 0.65um Cat. No. MADVN6550), was added 2 ul (50% suspension) of Protein-G Sepharose (available from Pharmacia of N.J. Cat. No. 17-0618-01) and either 2 ul of 2 mg/ml of MAB178. (for gp120/SH2 domain fusion proteins src, lck and hcp) or 0.25 ul of anti-GST polyclonal antisera (available from Pharmacia of N.J.) (for GST/SH2 domain fusion proteins fyn, Grb2, p85 and SH-PTP2). 10 pmol of the subject SH2 domain fusion protein were added to their respective wells. The volume was brought to 100 ul with TBS-T (tris buffered saline plus 0.05% tween-20), incubated and shaken at room trmperature for 1 hr. then washed 1x with TBS-T (4°C). 90 ul of TBS-T were then added to each well. Specific pY biotinylated peptides were diluted to a concentration of 1.0 uM in TBS-T (these peptides can be obtained from Bachem Bioscience of Pennsylvania, Genosys Biotechnologies of Texas and California Peptide Research of California). 10 ul was aliquoted per well to yield a final concentration of 0.1 uM (approx, the Kd for each SH2 domain/peptide pair) and a final volume of 100 ul. The assay plates were incubated until equilibrium binding was attained (3 hr at 4°C with shaking). The assay plates were washed 2 X per well TBS-T (4°C), then 100 ul of SABC (Strepavidin biotinylated horseradish peroxidase complex, available from the Zymed corporation of California cat. no. 93-0043, 1 drop reagent A (streptavidin) and 1 drop of reagent B (AH-biotin conjugated-horseradish peroxidase) per 10 ml of TBS-T, incubated at 37°C for 30 minutes, then cooled to 4°C) was added per well, then incubated at 4°C for 30-60 minutes. The plates were then washed 4 X with TBS-T (4°C) (250 ul/well)/wash). […]

T1 sequence (P62993 58-159): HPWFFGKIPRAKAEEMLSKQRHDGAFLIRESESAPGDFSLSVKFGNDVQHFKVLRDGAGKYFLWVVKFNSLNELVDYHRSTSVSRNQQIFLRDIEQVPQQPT

Q: “4-acetamido-benzamido-trans-4-methyl-cyclohexyl-N-1-(amino-R-2-(methoxy methyl)-pyrrolidine) carboxamide [Compound 8]” was tested. Which Ki did it give?
A: Its Ki is 330 µM.

Q: What about the IC50 of the same compound?
A: The IC50 was over 300 µM.

Q: Which Ki does the source give for Cc1nnc(SCC2=C(C(=O)O)N3C(=O)[C@@H](NC(=O)C(N)c4ccc(C(=O)O)cc4)[C@H]3SC2)s1 (stereo partly drawn) [Compound 1, 7-[D,L-α-Amino-α-(4-carboxyphenyl)acetamido]-3-[2-(5-methyl-1,3,4-thiadiazolyl)thiomethyl]Δ^3-cephem-4-carboxylic Acid] here?
A: The Ki was over 1000 µM.

Q: What about the IC50 of the same compound?
A: Its IC50 is over 300 µM.

Q: With N[C@@H](Cc1cc(Br)c(Oc2ccc(O)c(Cc3ccc(O)nn3)c2)c(Br)c1)C(=O)O [Compound 2, L-3,5-Dibromo-3'-(6-oxo-3(1H)-pyridazinylmethyl)-thyronine] as the compound, how does the Ki read?
A: The Ki was over 1000 µM.

Q: What about the IC50 of the same compound?
A: Its IC50 is over 300 µM.

Q: With Cc1nc2sc3c(c2c2[nH][nH]c(=O)c12)CCC1(C3)OCCO1 [Compound 3, 8,8-Ethylenedioxy-2,3,7,8,9,10-hexahydro-4-methyl-1H-benzo[b]thieno[2,3-b]pyrazolo[3,4-d]pyridin-3-one] as the compound, how does the Ki read?
A: The Ki was over 1000 µM.

Q: And the IC50?
A: Its IC50 is over 300 µM.

Q: Which results are given for Cc1ccc(C(=O)c2ccc(C(=O)c3ccc(CC=O)cc3)cc2)cc1 [Compound 4, 4-[4-(4-Methylbenzoyl)benzoyl]phenylacetaldehyde]?
A: Ki: > 1000 µM; IC50: > 300 µM

Q: How did the Ki turn out when Cc1nc2sc3c(c2c2c1c(=O)[nH]n2C)CCC1(C3)OCCO1 [Compound 5, 1,4-Dimethyl-8,8-ethylenedioxy-2,3,7,8,9,10-hexahydro-1H-benzo[b]thieno[2,3-b]pyrazolo[3,4-d]pyridin-3-one] was run?
A: Its Ki is over 1000 µM.

Q: And the IC50?
A: Its IC50 is over 300 µM.

Q: Which Ki does the source give for CCCCCCNC(=O)[C@H]1CC[C@H](CNC(=O)c2ccc([N+](=O)[O-])cc2)CC1 [Compound 7, 4-nitro-benzamido-trans-4-methyl-cyclohexyl-N-hexyl carboxamide] here?
A: Its Ki is over 1000 µM.

Q: What about the IC50 of the same compound?
A: The IC50 was over 300 µM.

Q: For CCCNC(=O)[C@H]1CC[C@H](CNC(=O)/C=C/c2ccc(C=O)cc2)CC1 [Compound 9, 4-formyl-E-cinnamido-trans-4-methyl-cyclohexyl-N-(propyl) carboxamide], which Ki is on record?
A: Its Ki is over 1000 µM.

Q: What about the IC50 of the same compound?
A: Its IC50 is over 300 µM.

Q: What does the source list for Cc1nc2sc3c(c2c2[nH][nH]c(=O)c12)CCCC3 [Compound 10, 2,3,7,8,9,10-Hexahydro-4-methyl-1H-benzo[b]thieno[2,3-b]pyrazolo[3,4-d]pyridin-3-one]?
A: Ki: > 1000 µM; IC50: > 300 µM
